Measured values reported in article PMC5031509 (ACS chemical neuroscience, 2016).

Experiments:
[1] = plasma/brain PO snapshot study in rats; type: in vivo, rat
mGlu6 = mGlu6 (Homo sapiens, UniProt O15303); test: mGlu selectivity assays in fold-shift format; type: cell-based
CYP2C19 = CYP2C19 (Homo sapiens, UniProt P33261); test: CYP450 inhibition; type: in vitro ADME
[2] = plasma protein binding, dog; type: in vitro ADME
[3] = target: T1, monoamine oxidase-B (MAO-B) (Homo sapiens, UniProt P27338); test: wider selectivity panel, MAO-B
T1 sequence (P27338 1-520): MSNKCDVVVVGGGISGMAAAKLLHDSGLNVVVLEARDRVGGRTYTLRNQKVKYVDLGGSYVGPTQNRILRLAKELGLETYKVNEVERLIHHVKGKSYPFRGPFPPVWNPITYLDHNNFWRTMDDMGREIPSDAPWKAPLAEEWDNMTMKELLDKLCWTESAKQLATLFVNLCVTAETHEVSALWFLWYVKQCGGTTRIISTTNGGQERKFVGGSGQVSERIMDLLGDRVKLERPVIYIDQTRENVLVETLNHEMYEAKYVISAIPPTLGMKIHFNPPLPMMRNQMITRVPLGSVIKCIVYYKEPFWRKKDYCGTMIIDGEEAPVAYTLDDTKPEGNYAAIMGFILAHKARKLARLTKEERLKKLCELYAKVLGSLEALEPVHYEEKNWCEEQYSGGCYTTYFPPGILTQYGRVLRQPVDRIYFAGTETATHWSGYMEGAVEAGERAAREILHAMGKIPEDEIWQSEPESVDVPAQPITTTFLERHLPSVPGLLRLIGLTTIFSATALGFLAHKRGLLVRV

[4] = plasma protein binding, mouse; type: in vitro ADME
[5] = test system: nine cardiac ion channels (including hERG); test: ChanTest Cardiac Channel Panel IC50 screen; details: human
CYP1A2 [6] = test: CYP1A2 induction in cryopreserved hepatocytes; type: cell-based, human
CYP1A2 [7] = target: T2, CYP1A2 (Homo sapiens, UniProt P05177); test: CYP450 inhibition, cocktail approach in human liver microsomes; type: in vitro ADME
T2 sequence (P05177 1-516): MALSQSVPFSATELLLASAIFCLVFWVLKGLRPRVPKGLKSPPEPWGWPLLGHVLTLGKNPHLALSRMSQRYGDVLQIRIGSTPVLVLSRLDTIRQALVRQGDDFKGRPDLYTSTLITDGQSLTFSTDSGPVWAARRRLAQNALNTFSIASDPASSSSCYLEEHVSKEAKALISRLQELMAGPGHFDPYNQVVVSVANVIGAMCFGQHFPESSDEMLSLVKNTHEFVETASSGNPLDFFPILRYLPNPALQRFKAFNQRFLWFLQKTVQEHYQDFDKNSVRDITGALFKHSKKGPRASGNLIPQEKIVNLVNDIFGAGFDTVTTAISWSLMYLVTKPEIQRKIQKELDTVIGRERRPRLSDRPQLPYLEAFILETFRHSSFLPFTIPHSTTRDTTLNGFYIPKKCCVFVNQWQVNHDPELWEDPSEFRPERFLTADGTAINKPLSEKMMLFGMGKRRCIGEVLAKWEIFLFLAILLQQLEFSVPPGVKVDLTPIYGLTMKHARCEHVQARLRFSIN

in vivo [8] = details: rat, iv, 1 mg/kg
Met ID = type: in vitro ADME; details: rat liver microsomes
rat mGlu4 = rat mGlu4 (Rattus norvegicus, UniProt P31423); test: functional assay using the rat mGlu4 protein; type: cell-based
Sequence of rat mGlu4 (P31423 33-912): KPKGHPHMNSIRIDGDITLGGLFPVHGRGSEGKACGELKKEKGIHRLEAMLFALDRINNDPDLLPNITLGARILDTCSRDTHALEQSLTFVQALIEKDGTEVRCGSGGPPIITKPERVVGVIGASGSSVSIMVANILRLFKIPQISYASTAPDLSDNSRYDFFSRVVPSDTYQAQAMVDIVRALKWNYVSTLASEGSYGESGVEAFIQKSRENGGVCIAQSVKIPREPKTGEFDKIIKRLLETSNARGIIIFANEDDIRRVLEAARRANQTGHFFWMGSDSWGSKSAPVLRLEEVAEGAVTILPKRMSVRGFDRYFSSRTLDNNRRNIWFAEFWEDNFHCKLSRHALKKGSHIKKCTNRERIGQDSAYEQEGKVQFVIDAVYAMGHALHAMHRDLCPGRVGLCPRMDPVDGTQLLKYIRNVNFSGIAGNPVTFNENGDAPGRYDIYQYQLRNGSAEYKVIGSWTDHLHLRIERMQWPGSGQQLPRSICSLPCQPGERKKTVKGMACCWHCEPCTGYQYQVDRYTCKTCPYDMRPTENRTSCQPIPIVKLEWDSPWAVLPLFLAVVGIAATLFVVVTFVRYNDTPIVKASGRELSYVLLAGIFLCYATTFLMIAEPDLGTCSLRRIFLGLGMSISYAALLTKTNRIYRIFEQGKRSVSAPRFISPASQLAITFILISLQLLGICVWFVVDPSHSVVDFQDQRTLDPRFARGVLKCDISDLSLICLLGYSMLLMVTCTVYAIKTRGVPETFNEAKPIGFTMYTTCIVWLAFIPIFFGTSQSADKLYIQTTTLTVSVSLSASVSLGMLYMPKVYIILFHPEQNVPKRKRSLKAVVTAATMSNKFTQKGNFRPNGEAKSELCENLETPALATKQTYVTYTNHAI

in vivo [9] = details: rat, po, 10 mg/kg
CYP3A4 = CYP3A4 (Homo sapiens, UniProt P08684); test: CYP450 inhibition, cocktail approach in human liver microsomes; type: in vitro ADME
Sequence of CYP3A4 (P08684 whole entry): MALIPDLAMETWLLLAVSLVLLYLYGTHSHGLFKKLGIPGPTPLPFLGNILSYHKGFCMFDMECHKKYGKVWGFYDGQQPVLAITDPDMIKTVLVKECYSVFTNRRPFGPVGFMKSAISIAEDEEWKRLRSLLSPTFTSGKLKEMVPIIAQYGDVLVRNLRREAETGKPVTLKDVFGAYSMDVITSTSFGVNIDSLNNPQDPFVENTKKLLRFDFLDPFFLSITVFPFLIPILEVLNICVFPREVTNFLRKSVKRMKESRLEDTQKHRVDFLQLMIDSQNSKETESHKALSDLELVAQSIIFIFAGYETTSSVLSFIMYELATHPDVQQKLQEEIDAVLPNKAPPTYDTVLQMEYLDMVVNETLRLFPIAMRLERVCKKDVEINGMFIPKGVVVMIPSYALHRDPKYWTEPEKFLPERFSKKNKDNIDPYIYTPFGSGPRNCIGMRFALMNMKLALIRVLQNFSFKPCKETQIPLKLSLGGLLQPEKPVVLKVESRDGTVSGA

[10] = test system: panel of 96 kinase targets; test: DiscoveRx KINOMEscan kinase panel; type: binding
[11] = test system: panel of GPCRs, enzymes, ion channels, nuclear hormone receptors and transporters; test: wider selectivity panel; details: all targets except MAO-B
[12] = plasma protein binding, rat; type: in vitro ADME
[13] = plasma protein binding, rhesus; type: in vitro ADME; details: rhesus monkey
CYP2C9 = CYP2C9 (Homo sapiens, UniProt P11712); test: CYP450 inhibition, cocktail approach in human liver microsomes; type: in vitro ADME
Sequence of CYP2C9 (P11712 whole entry): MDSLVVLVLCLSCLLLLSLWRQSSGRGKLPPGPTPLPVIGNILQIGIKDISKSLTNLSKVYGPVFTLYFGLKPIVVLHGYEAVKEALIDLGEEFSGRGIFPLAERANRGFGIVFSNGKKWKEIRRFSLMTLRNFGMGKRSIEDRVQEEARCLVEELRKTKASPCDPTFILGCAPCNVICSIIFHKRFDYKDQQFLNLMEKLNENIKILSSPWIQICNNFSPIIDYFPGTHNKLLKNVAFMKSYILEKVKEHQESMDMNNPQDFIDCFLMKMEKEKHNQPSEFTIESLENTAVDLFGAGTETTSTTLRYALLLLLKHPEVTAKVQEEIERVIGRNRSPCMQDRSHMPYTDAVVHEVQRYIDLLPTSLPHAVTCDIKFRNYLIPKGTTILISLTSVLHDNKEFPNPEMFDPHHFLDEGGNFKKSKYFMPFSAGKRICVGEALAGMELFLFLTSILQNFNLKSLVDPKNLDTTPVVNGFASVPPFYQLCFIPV

[14] = in vivo PK, rhesus IV cassette; details: rhesus monkey, plasma
[15] = plasma protein binding, human; type: in vitro ADME
P-glycoprotein (Pgp) = P-glycoprotein (Pgp) (Homo sapiens, UniProt P08183); test: Permeability; type: in vitro ADME
Sequence of P-glycoprotein (Pgp) (P08183 whole entry): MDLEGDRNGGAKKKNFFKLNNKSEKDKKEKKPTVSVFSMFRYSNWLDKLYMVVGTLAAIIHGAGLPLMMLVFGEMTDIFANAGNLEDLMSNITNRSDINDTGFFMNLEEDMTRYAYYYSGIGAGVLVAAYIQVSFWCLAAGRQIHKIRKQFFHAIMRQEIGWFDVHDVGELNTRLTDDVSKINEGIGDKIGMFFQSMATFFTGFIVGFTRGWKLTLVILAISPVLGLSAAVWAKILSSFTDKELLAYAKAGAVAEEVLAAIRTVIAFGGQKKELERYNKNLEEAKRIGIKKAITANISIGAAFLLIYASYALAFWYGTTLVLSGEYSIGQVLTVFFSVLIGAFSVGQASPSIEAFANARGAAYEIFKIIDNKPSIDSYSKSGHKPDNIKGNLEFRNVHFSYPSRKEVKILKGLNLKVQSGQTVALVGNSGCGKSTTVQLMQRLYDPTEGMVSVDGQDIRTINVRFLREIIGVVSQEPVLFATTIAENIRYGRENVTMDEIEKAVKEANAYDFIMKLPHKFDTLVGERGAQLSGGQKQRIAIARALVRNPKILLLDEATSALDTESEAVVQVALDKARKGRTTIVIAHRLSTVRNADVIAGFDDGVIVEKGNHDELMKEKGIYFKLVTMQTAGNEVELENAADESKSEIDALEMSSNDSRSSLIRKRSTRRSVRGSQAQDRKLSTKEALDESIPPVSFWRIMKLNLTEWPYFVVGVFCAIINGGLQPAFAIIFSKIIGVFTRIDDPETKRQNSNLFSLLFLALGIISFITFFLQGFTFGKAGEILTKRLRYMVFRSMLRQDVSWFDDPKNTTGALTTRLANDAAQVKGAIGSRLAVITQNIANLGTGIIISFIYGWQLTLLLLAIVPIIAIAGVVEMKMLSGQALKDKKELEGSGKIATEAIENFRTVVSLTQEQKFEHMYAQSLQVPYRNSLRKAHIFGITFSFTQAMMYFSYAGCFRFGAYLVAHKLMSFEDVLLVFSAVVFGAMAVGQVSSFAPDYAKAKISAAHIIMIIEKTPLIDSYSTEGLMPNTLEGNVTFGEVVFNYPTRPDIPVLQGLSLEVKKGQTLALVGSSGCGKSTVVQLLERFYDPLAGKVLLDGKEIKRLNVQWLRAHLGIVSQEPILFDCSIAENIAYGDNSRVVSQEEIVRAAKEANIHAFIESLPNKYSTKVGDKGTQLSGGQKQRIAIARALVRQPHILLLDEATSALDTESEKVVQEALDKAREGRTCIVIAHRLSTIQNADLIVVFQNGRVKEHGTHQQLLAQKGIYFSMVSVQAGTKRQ

CYP2D6 = CYP2D6 (Homo sapiens, UniProt P10635); test: CYP450 inhibition, cocktail approach in human liver microsomes; type: in vitro ADME
Sequence of CYP2D6 (P10635 whole entry): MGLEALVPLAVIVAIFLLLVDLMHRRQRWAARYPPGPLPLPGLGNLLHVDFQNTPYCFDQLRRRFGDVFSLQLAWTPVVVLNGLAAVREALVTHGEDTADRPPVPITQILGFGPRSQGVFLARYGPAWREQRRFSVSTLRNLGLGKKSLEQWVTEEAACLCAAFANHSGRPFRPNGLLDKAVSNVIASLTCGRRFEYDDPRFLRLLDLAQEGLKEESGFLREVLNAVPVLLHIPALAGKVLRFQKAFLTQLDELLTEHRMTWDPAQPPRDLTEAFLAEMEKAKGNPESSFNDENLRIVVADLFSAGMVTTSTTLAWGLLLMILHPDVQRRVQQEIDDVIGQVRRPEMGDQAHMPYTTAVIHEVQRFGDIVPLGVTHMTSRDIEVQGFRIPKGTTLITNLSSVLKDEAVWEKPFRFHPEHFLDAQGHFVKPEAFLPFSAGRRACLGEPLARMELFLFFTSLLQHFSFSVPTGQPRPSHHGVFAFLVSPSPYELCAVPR

Sequence of mGlu6 (O15303 25-877): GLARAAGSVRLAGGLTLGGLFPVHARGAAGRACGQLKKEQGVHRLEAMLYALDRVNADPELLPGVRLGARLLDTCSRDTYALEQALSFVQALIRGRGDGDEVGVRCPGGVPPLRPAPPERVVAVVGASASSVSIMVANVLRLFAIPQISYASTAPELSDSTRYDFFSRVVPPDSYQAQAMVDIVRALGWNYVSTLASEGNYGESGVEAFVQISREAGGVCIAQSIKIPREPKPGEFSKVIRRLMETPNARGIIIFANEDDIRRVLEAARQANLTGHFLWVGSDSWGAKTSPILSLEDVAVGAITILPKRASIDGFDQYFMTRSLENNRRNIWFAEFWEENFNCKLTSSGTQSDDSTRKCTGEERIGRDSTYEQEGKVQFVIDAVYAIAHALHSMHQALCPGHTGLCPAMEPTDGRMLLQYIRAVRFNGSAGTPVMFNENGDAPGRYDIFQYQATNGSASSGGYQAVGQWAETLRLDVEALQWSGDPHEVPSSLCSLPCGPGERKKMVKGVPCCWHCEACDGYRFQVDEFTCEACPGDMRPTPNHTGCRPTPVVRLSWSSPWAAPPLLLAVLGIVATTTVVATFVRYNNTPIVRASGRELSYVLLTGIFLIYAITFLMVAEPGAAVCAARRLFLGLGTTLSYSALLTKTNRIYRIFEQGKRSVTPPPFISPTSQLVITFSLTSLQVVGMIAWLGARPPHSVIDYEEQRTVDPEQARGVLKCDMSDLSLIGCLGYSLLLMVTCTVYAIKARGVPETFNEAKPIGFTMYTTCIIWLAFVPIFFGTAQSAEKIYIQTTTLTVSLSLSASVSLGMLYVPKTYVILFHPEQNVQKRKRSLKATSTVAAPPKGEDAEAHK
Sequence of CYP2C19 (P33261 whole entry): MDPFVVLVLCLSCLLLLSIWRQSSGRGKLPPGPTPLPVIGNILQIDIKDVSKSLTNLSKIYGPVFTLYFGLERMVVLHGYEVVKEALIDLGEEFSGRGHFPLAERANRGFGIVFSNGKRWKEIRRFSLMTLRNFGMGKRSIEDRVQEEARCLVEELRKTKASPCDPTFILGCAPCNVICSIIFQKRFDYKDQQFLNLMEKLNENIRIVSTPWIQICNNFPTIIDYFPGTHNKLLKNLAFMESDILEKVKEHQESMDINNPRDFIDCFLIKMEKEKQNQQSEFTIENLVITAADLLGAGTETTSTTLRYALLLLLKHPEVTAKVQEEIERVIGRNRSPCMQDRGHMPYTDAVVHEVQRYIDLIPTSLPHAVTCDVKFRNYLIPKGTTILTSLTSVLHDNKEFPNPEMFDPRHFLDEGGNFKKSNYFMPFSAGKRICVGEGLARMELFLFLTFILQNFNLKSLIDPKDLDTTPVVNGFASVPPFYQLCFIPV

Fc1ccc(Nc2n[nH]c3cccnc23)cc1Cl [Compound 26, N-(3-chloro-4-fluorophenyl)-1H-pyrazolo[4,3-b]pyridin-3-amine]
mini-AMES result (TA98 and TA100): negative | brain AUC ([1]; rat CNS PO PBL (0−6 h)): 18 415 ng·h/mL | Kp at 6 h ([1]; rat, brain/plasma, po): 2.1 | AUC ([1]; rat, plasma, po): 8770 ng·h/mL | activity at mGlu6 (mGlu6): functionally interact (with equipotency) | IC50 (CYP2C19): 6.1 µM | fraction unbound [2]: 0.009 | activity against MAO-B [3]: 330 nM | fraction unbound [4]: 0.019 | IC50 [5]: > 100 µM | CYP1A2 induction Emax (CYP1A2 [6]): 104 fold-induction | EC50 (CYP1A2 [6]; human): 9.8 µM | IC50 (CYP1A2 [7]): < 0.1 µM | AUC (in vivo [8]): 608 ng·h/mL | MRT (in vivo [8]): 2.2 h | Vd (in vivo [8]): 4 L/kg | clearance (in vivo [8]): 29 mL/min/kg | half-life (in vivo [8]): 1.52 h | major metabolite (Met ID): oxodefluorination | EC50 (rat mGlu4): 0.046 µM | bioavailability (in vivo [9]; in vivo): 95% | AUC (in vivo [9]; plasma): 7420 ng·h/mL | Cmax (in vivo [9]; plasma): 875 ng/mL | Tmax (in vivo [9]; plasma): 2 h | IC50 (CYP3A4): > 30 µM | activity against 96 kinase targets [10]: < 30% | activity against wider panel of targets [11]: inactive | fraction unbound ([12]; plasma protein binding (%Fu)): 0.028 | fraction unbound ([12]; plasma protein binding (Fu), rat plasma, fraction unbound): 0.028 | fraction unbound [13]: 0.014 | IC50 (CYP2C9): 8.9 µM | clearance [14]: 13 mL/min/kg | half-life [14]: 3 h | plasma protein binding (%Fu) [15]: 1.7% | fraction unbound ([15]; plasma): 0.017 | substrate for P-glycoprotein (P-glycoprotein (Pgp)): not a substrate | Papp A→B (P-glycoprotein (Pgp); not told): 24 ×10⁻⁶ cm/s | Papp B→A (P-glycoprotein (Pgp); not told): 14 ×10⁻⁶ cm/s | IC50 (CYP2D6): > 30 µM
